One series relates to CMM-forming enzyme. The experiment in a line: Action on various saccharides (substrate specificity, TLC). The conditions noted are these: substrate 2% (w/v), one unit/g-substrate enzyme, 40° C., pH 6.0, 24 hours, TLC before and after reaction. The series is classed as biochemical, Arthrobacter globiformis M6. The arrangement: key: “−” means “Not changed”; “+” means “Spot of substrate is slightly decreased and other products are detected”; “++” means “Spot of substrate is markedly decreased and other products are detected”; “+++” means “Spot of substrate is virtually disappeared and other products are detected”. The method, then:
Substrate specificity of CMM-forming enzyme of the present invention was investigated using various saccharides as substrates. Substrate solutions were prepared by dissolving maltose, maltotriose, maltotetraose, maltopentaose, maltohexaose, maltoheptaose, neotrehalose, trehalose, kojibiose, nigerose, […] isomaltose, isomaltotriose, panose, isopanose, maltitol, maltotriitol, α-, β- or γ-cyclodextrin, amylose, soluble starch, glycogen, pullulan or dextran into water. Each substrate solution was admixed with acetate buffer (pH 6.0) and CaCl2 to give final concentrations of 20 mM and 1 mM, respectively. […] Substrate concentration was set to 2% (w/v) and followed by the enzyme reaction at 40° C. and pH 6.0 for 24 hours. Action and the specificity of the enzyme on these saccharides were confirmed by analyzing the reaction mixture before and after the reaction by TLC described in Experiment 1.

A short description of series [1]: Amino-carbonyl reaction with glycine. The settings on record: […] (w/v) saccharide, 0.5% (w/v) glycine, pH 8.0, 100° C. The series is classed as physicochemical. The method, then: (§1) As a control, an aqueous solution containing maltose and glycine was prepared in the same manner using maltose except for the powdery hydrous crystalline CMM. Four milliliters each of the solution was put in a glass tube, sealed and then heated at 100° C. for 30, 60, or 90 min. After cooling the solutions, the degrees of coloring of the solutions were measured to estimate the degree of amino-carbonyl reaction. The degree of coloring was defined as an absorbance at 480 nm using a 1 cm-cell.

Series [2] can be described thus: Amino-carbonyl reaction with polypeptone. The series is classed as physicochemical. The settings on record: 5% (w/v) saccharide, 5% (w/v) polypeptone, 120° C., blank subtracted. The method, then:
as §1, with “polypeptone” for “glycine”, “120°” for “100°”, “reaction. As a blank test, a solution containing polypeptone only was heated in the same manner.” for “reaction.”, “cm-cell after subtracting the absorbance of the blank test.” for “cm-cell.”

Another series addresses T1, Salivary α-amylase (Homo sapiens, UniProt P0DUB6).
T1 sequence (P0DUB6 16-511): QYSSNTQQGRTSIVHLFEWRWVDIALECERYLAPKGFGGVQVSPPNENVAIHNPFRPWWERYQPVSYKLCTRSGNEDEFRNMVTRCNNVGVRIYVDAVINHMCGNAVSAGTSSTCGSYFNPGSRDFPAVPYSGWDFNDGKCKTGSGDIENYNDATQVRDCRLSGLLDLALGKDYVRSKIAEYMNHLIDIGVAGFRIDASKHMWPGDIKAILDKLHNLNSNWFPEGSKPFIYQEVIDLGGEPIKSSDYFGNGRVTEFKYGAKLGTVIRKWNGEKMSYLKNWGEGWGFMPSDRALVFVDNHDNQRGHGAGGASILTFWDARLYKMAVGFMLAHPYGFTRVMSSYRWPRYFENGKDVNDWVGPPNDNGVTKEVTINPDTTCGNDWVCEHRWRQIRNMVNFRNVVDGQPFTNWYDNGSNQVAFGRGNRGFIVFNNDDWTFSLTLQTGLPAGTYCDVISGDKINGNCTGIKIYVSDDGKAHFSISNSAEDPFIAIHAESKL
The experiment in a line: Digestibility by salivary α-amylase.

The test system of a further series is Pancreas α-amylase. The series is described as follows: Digestibility by pancreas α-amylase.
Series [3] can be described thus: Digestibility by artificial gastric juice.
Text: (§2) 43, 23-29 (1990), the digestibility of CMM by salivary α-amylase, artificial gastric juice, pancreas amylase, and small intestinal enzymes were investigated using the powdery hydrous crystalline CMM, obtained by the method in Experiment 14.
For a further series, the system named is Small intestinal enzymes. The experiment in a line: Digestibility by small intestinal enzymes.
A short description of series [4]: Isoelectric point of CMM-forming enzyme. The series is classed as physicochemical, Arthrobacter globiformis M6.
Experimental: The purified enzyme preparation of CMM-forming enzyme, obtained by the method in Experiment 4, was subjected to polyacrylamide gel isoelectrofocusing containing 2% (w/v) “AMPHOLINE”, a carrier ampholyte commercialized by Amersham Biosciences, Tokyo, Japan and isoelectric point of CMM-forming enzyme was measured compare with isoelectric point markers, commercialized by Amersham Biosciences, Tokyo, Japan.
Series [5] is described as follows: Optimum temperature and optimum pH of the enzyme reaction. The series is classed as biochemical, Arthrobacter globiformis M6. The method, then:
The enzyme activity of CMM-forming enzyme of the present invention can be assayed as follows: A substrate solution is prepared by dissolving soluble starch in 50 mM acetate buffer (pH 6.0) containing 2 mM CaCl2 to give a concentration of 2% (w/v). A half milliliter of an enzyme solution is added to 0.5 ml of the substrate solution, and the mixture solution is incubated at 40° C. for 30 min. After stopping the reaction by heating at about 100° C. for 10 min, the reaction mixture is admixed with 4,000 units/g-solid of α-glucosidase and 250 units/g-solid of glucoamylase to hydrolyze remaining soluble starch and by-products, oligosaccharides, and followed by the enzyme treatment at 50° C. for 1 hour. The amount of CMM contained in the treated mixture is determined by HPLC described later in Experiment 1. One unit activity of CMM-forming enzyme is defined as the amount of enzyme which forms one μmole of CMM per minute under the above conditions.
The results are in FIG. 5 (Optimum temperature) and in FIG. 6 (Optimum pH), respectively.

Setting [6] is: recombinant enzyme purified from transformant BMB1.

Text for Pancreas α-amylase: as §2
Text for Salivary α-amylase: as §2
Text for Small intestinal enzymes: as §2

On to `OC[C@H]1O[C@H](O[C@H]2[C@H](O)[C@@H](O)C(O)O[C@@H]2CO)[C@H](O)[C@@H](O)[C@@H]1O` (mixture of isomers) [Maltose, maltose], for which, in the series with CMM-forming enzyme, the Action entry is “−”. The “Degree of coloring (A480 nm)” value stood at 0.00 in series [1] (heating time 0 min); 0.02 in [1] (heating time 30 min); 0.08 in series [1] (heating time 60 min); 0.17 in series [1] (heating time 90 min); 0.00 in series [2] (heating time 0 min); 0.10 in [2] (heating time 30 min). Besides, the results for the “Degree of coloring (A480 nm)” value in series [2] (heating time 60 min) and in [2] (heating time 90 min) were 0.30 and 0.62, respectively.

For `OC[C@@H](O)[C@@H](O[C@H]1O[C@H](CO)[C@@H](O)[C@H](O)[C@H]1O)[C@H](O)[C@@H](O)CO` [Maltitol, maltitol], the Action entry in the series on CMM-forming enzyme is on record as “−”. The “Degradation rate (%)” value is on record as 0% on Salivary α-amylase, 0% in the series with Pancreas α-amylase, 0% in series [3] and 4% in the series with Small intestinal enzymes.

B1: CMM-forming enzyme: enzyme from Arthrobacter globiformis M6 acting on α-1,4 glucans of polymerization degree 3 or higher to form CMM; SEQ ID NO:2 (protein, listed as Arthrobacter globiformis)
chain: DPTTSPGPLAEGDVIYQVLVDRFEDGDPTNNDQGDGEYDPSDLGFYHGGDWAGLTDRLDYIADLGVTAIWLSPVSEQQPLSRDGLEASYHGYFTRDFATPNEHFGDRAELQELIDTAHDLGLKMILDVVPNHTADYLAGTSTTYSPSTYKPASPLDDASYFHHAGDCLFNGLETQTQIENCDLGGLDDLDQSNPVVSSHLMSTYKDWVDMGFDGIRVDAARSVPKPWLADFEAEMGVPTFGEVFVGDVDYVSEYQDYEWGVLDFPYFFTVREAFSADTDMNKLGDLFDQDSKYANPNRLETFLDNHDRARFLTWADDNYQRLRSGLTFLLTSRGVPVIYYGTEQADDGNGNPYEVPIANKDNRKDMESFDQNSNLYKHIQRLTAIKAAYPALQVGTQREMWSDTSVYGFSRRVDSTGAEAMTFSSNSWTTQTRTVPLRAESSITVGTTLTNLMNTGDTVTVTAGGVTGKQITVSLGEHESKVYAPGTPVSAYSPEARNTTKIRVHYNVGLGHSIAIRGDEYPFTWTSGRGARNVASDVWEFEVERIPDGETFQFKPLIDDVTWSTGGNFTGTGGDVIDIYPTF
For B1, the “isoelectric point (pI)” value in series [4] (purified enzyme from Arthrobacter globiformis M6, polyacrylamide gel isoelectrofocusing) is 3.6±0.5. For the same molecule, in [4] (setting [6]), the isoelectric point result is listed as “about 3.6±0.5”. In addition, the “optimum pH” value in series [5] (purified enzyme from M6, reacted at 40° C. for 30 min) was 5.5 to 6.5. The optimum temperature in [5] (purified enzyme from M6, reacted at pH 6.0 for 30 min) was 50 to 55 °C. Also, in series [5] (setting [6]), the “optimum pH” value is reported as 5.5 to 6.5 and the “optimum temperature of CMM-forming enzyme activity” value fell in the range of 50 to 55 °C.

The values above are taken from patent US7951530B2, “Cyclic maltosylmaltose, cyclic maltosymaltose-forming enzyme, their preparation and uses” (Kabushiki Kaisha Hayashibara Seibutsu Kagaku Kenkyujo, priority 2003, dated 2011).
